Data reported in US20260176289A1, “SMALL MOLECULE INHIBITORS OF KRAS PROTEINS” (Merck Sharp & Dohme LLC, priority 2022, published 2026).
pIC50: −log10 of the molar value. Like-named read-outs stand apart in the source and are kept apart here.

Legend:
KRAS-G12D = KRAS-G12D (Homo sapiens, UniProt P01116, G12D); assay: SOS-catalyzed nucleotide exchange assay (Procedure A, TR-FRET), KRAS-G12D; assay type: biochemical; conditions: nucleotide exchange, read-out: KRAS G12D GNE IC50
Outline: (§1)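 Signal ratio (520/495 nm, excitation 340 nm) reports Bodipy-GDP retention on biotinylated RAS after SOS-catalyzed exchange with 3 mM GTP. SOS was 40 nM, except 160 nM for G12V. Room-temperature exchange lasted 60 min (90 min for G12V), following a 60 min compound preincubation.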

KRAS-G12V = KRAS-G12V (Homo sapiens, UniProt P01116, G12V); assay: SOS-catalyzed nucleotide exchange assay (Procedure A, TR-FRET), KRAS-G12V; assay type: biochemical; conditions: nucleotide exchange, read-out: KRAS G12V GNE IC50
Outline: as §1

KRAS-WT = KRAS-WT (Homo sapiens, UniProt P01116); assay: SOS-catalyzed nucleotide exchange assay (Procedure A, TR-FRET), KRAS-WT; assay type: biochemical; conditions: nucleotide exchange, read-out: KRAS WT GNE IC50
Outline: as §1

[1] = molecular target: KRAS-G12C (C51S/C80L/C118S) (Homo sapiens, UniProt P01116, C118S/C51S/C80L/G12C); assay: SOS-catalyzed nucleotide exchange assay (Procedure A, TR-FRET), KRAS-G12C; assay type: biochemical; conditions: nucleotide exchange, Procedure A; read-out: KRAS G12C GNE IC50
Outline: as §1

AsPC-1 cells = assay: Cellular phospho-ERK assay, AsPC-1 cells (homozygous KRAS-G12D); assay type: cell-based; conditions: Homo sapiens, ASPC1, 2 h, read-out: AsPC1 pERK IC50
Outline: (§2)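 Cells seeded at 10,000-15,000 per well were incubated overnight, then exposed to compound for 2 hours at 37 °C in a 10-point, 1:3 series topping at 30 μM final. Lysates were assayed by Alpha SureFire Ultra multiplex for p-ERK and total ERK; IC50 came from a 4-parameter logistic fit of their ratio.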

MKN-1 cells = assay: Cellular phospho-ERK assay, MKN-1 cells (amplified wild-type KRAS); assay type: cell-based; conditions: Homo sapiens, read-out: MKN1 pERK IC50
Outline: as §2

KRAS-G13D = KRAS-G13D (Homo sapiens, UniProt P01116, G13D); assay: SOS-catalyzed nucleotide exchange assay (Procedure A, TR-FRET), KRAS-G13D; assay type: biochemical; conditions: nucleotide exchange, Procedure A; read-out: KRAS G13D GNE IC50
SW620 cells = assay: Cellular phospho-ERK assay, SW620 cells (homozygous KRAS-G12V); assay type: cell-based; conditions: Homo sapiens, read-out: SW620 pERK IC50
Outline: as §2

[2] = amplified wild-type KRAS, 2 hours
[3] = SW-620, 2 hours compound incubation

Sequence of KRAS-G12C (C51S/C80L/C118S) (P01116 with tags, fused parts or gaps isoform P01116-2 G12C/C51S/C80L/C118S): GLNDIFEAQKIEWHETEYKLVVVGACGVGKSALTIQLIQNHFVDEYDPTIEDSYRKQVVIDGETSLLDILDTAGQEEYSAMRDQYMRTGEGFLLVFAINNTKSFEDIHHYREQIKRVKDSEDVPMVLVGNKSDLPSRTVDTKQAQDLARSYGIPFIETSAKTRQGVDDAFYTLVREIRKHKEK
Sequence of KRAS-G12V (P01116 with tags, fused parts or gaps isoform P01116-2 G12V): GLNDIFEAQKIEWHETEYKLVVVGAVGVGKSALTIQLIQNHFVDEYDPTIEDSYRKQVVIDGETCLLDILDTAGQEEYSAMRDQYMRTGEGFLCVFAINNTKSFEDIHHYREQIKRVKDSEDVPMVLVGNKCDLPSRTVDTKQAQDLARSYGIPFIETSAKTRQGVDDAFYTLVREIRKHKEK
Sequence of KRAS-G13D (P01116 with tags, fused parts or gaps isoform P01116-2 G13D): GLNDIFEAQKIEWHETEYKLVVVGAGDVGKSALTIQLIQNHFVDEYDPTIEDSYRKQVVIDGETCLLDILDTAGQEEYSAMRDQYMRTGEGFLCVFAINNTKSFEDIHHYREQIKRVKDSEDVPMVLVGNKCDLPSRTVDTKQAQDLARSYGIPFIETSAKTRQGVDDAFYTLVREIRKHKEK
Sequence of KRAS-G12D (P01116 with tags, fused parts or gaps isoform P01116-2 G12D): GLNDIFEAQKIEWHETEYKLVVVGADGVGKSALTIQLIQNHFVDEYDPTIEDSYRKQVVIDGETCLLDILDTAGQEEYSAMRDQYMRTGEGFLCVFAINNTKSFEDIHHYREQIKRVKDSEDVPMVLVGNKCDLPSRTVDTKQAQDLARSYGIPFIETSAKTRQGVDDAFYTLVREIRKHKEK
Sequence of KRAS-WT (P01116 with tags, fused parts or gaps isoform P01116-2): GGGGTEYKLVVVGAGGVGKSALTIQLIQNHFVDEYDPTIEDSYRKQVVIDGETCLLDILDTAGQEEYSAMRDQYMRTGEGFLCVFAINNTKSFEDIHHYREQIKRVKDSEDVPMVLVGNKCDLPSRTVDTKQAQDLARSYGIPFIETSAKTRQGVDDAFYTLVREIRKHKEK

| pIC50 (AsPC-1 cells; 2 hours compound incubation) | pIC50 (MKN-1 cells; 2 hours compound incubation) | pIC50 (SW620 cells; [3]) | Compound | pIC50 (KRAS-G12D) | pIC50 (KRAS-G12V) | pIC50 (KRAS-WT) | pIC50 [1] | pIC50 (AsPC-1 cells; KRAS-G12D, 2 hours) | pIC50 (MKN-1 cells; [2]) | pIC50 (KRAS-G13D) | pIC50 (SW620 cells; SW-620, KRAS-G12V, 2 hours) |
| --- | --- | --- | --- | --- | --- | --- | --- | --- | --- | --- | --- |
| – | – | – | C=C(F)c1c(C(F)(F)F)cc2[nH]ncc2c1-c1nccc2c1sc1nc(OC[C@@]34CCCN3C[C@H](F)C4)nc(N3CCOC[C@@](C)(O)C3)c12 [Ex-58, (6S)-4-(2-(((2R,7aS)-2-fluorotetrahydro-1H-pyrrolizin-7a(5H)-yl)methoxy)-8-(5-(1-fluorovinyl)-6-(trifluoromethyl)-1H-indazol-4-yl)pyrido[4′,3′:4,5]thieno [2,3-d]pyrimidin-4-yl)-6-methyl-1,4-oxazepan-6-ol] | 8.27 | 7.87 | 7.76 | 7.78 | 7.24 | 7.45 | 7.98 | 7.44 |
| – | – | – | Cc1cc2[nH]ncc2c(-c2nncc3c2sc2nc(OC[C@@]45CCCN4C[C@H](F)C5)nc(N4CCOC[C@@](C)(O)C4)c23)c1C1CC1 [Ex-279, (6S)-4-(8-(5-cyclopropyl-6-methyl-1H-indazol-4-yl)-2-(((2R,7aS)-2-fluorotetrahydro-1H-pyrrolizin-7a(5H)-yl)methoxy)pyrimi-do[5′,4′:4,5]thieno[2,3-d]pyridazin-4-yl)-6-methyl-1,4-oxazepan-6-ol] | 8.29 | 7.80 | 7.87 | 7.01 | 6.94 | 7.37 | 8.12 | 7.00 |
| 7.69 | 7.20 | 7.77 | C[C@@]1(O)COCCN(c2nc(OC[C@@]34CCCN3C/C(=C\F)C4)nc3sc4c(-c5c(C6CC6)c(Cl)cc6[nH]ncc56)nccc4c23)C1 [Ex-208, (6S)-4-(8-(6-chloro-5-cyclopropyl-1H-indazol-4-yl)-2-(((S,Z)-2-(fluoromethylene)tetrahydro-1H-pyrrolizin-7a(5H)-yl)methoxy)pyrido[4′,3′:4,5]thieno[2,3-d]pyrimidin-4-yl)-6-methyl-1,4-oxazepan-6-ol] | 8.61 | 7.95 | 8.24 | 7.35 | – | – | 7.69 | – |
| 6.92 | 6.81 | 6.92 | CC(C)c1c(Cl)cc2[nH]ncc2c1-c1nccc2c1sc1nc(OC[C@@]34CCCN3C[C@H](F)C4)nc(N3CCOC[C@@](C)(O)C3)c12 [Ex-145, (6S)-4-(8-(6-chloro-5-isopropyl-1H-ind-azol-4-yl)-2-(((2R, 7aS)-2-fluorotetra-hydro-1H-pyrrol-izin-7a(5H)-yl)meth-oxy)pyrido[4′,3′:4,5]thieno[2,3-d]pyr-imidin-4-yl)-6-meth-yl-1,4-oxazepan-6-ol] | 7.46 | 7.14 | 7.23 | 7.35 | – | – | 7.56 | – |
| 7.28 | 7.35 | 7.64 | CC[C@@H]1CCCc2cc3[nH]ncc3c(-c3nccc4c3sc3nc(OC[C@@]56CCCN5C[C@H](F)C6)nc(N5CCOC[C@@](C)(O)C5)c34)c21 [Ex-176] | 8.21 | 7.94 | 7.70 | 7.98 | – | – | 7.90 | – |
| – | – | – | C=C(C)c1c(C(F)(F)F)cc2[nH]ncc2c1-c1nccc2c1sc1nc(OCC34CCCN3CC(F)C4)nc(N3CCOCC(C)(O)C3)c12 [Ex-60, (6S)-4-(2-(((2R,7aS)-2-fluorotetrahydro-1H-pyrrolizin-7a(5H)-yl)methoxy)-8-(5-(prop-1-en-2-yl)-6-(trifluoromethyl)-1H-indazol-4-yl)pyrido[4′,3′:4,5]thieno [2,3-d]pyrimidin-4-y])-6-methyl-1,4-oxazepan-6-ol] | 8.02 | 7.73 | 7.54 | 7.65 | 7.00 | 7.35 | 7.80 | 7.38 |
| – | – | – | C[C@@]1(O)COCCN(c2nc(OC[C@@]34CCCN3C/C(=C\F)C4)nc3sc4c(-c5c(C6(F)CC6)c(C(F)(F)F)cc6[nH]ncc56)nccc4c23)C1 [Ex-56, (6S)-4-(8-(5-(1-fluorocyclopropyl)-6-(trifluoromethyl)-1H-indazol-4-yl)-2-(((S,Z)-2-(fluoromethylene)tetrahy-dro-1H-pyrrolizin-7a(5H)-yl)methoxy)pyrido[4′,3′:4,5]thi-eno[2,3-d]pyrimidin-4-yl)-6-methyl-1,4-oxazepan-6-ol] | 8.04 | 7.49 | 7.58 | 6.89 | 7.31 | 7.34 | 7.65 | 7.24 |
| – | – | – | Cc1cc2[nH]ncc2c(-c2nccc3c2sc2nc(OC[C@@]45CCCN4C[C@H](F)C5)nc(N4CCOC[C@@](C)(O)C4)c23)c1C12CC(C1)C2 [Ex-43, (6S)-4-(8-(5-(bicyclo[1.1.1]pentan-1 yl)-6-methy1-1H-indazol-4-yl)-2-(((2R,7aS)-2-fluorotetrahydro-1H-pyrrolizin-7a(5H)-yl)methoxy)pyrido[4′,3′:4,5]thi-eno[2,3-d]pyrimidin-4-yl)-6-methyl-1,4-oxazepan-6-ol] | 7.86 | 7.57 | 7.35 | 7.61 | 6.89 | 6.84 | 7.76 | 7.21 |
| 7.39 | 7.38 | 7.51 | C#Cc1cc(F)cc2cc3[nH]ncc3c(-c3nccc4c3sc3nc(OC[C@@]56CCCN5C[C@H](F)C6)nc(N5CCOC[C@@](C)(O)C5)c34)c12 [Ex-165] | 8.17 | 7.96 | 7.73 | 7.66 | – | – | 7.85 | – |
| 7.09 | 6.92 | 7.01 | C=C(C)c1c(Cl)cc2[nH]ncc2c1-c1nccc2c1sc1nc(OC[C@@]34CCCN3C[C@H](F)C4)nc(N3CCOC[C@@](C)(O)C3)c12 [Ex-142, (6S)-4-(8-(6-chloro-5-(prop-1-en-2-yl)-1H-indazol-4-yl)-2-(((2R,7aS)-2-fluoro-tetrahydro-1H-pyr-rolizin-7a(5H)-yl)-methoxy)pyrido [4′,3′:4,5]thieno[2,3-d]pyrimidin-4-yl)-6-methyl-1,4-oxaze-pan-6-ol] | 7.72 | 7.53 | 7.31 | 7.47 | – | – | 7.51 | – |
| 7.25 | 7.08 | 7.31 | C[C@@]1(O)COCCN(c2nc(OC[C@@]34CCCN3C[C@@]3(CC3(F)F)C4)nc3sc4c(-c5c(C6CC6)c(Cl)cc6[nH]ncc56)nccc4c23)C1 [Ex-211, (6S)-4-(8-(6-chloro-5-cyclopropyl-1H-indazol-4-yl)-2-(((1S,7a′S)-2,2-difluorodihydro-1′H,3′H-spiro[cyclo-propane-1,2′-pyrrol-izin]-7a′(5′H)-yl)-methoxy)pyrido [4′,3′:4,5]thieno[2,3-d]pyrimidin-4-yl)-6-methyl-1,4-oxaze-pan-6-ol] | 8.23 | 7.92 | 7.78 | 7.34 | – | – | 7.82 | – |
| – | – | – | C=C(C)c1c(C)cc2[nH]ncc2c1-c1nncc2c1sc1nc(OC[C@@]34CCCN3C[C@H](F)C4)nc(N3CCOC[C@@](C)(O)C3)c12 [Ex-278] | 7.83 | 7.52 | 7.34 | 7.13 | 6.44 | 7.01 | 7.69 | 6.99 |
| – | – | – | C[C@@]1(O)COCCN(c2nc(OC[C@@]34CCCN3C[C@H](F)C4)nc3sc4c(-c5c(C6CC6)c(C(F)(F)F)cc6[nH]ncc56)nccc4c23)C1 [Ex-76, (6S)-4-(8-(5-cyclopropyl-6-(trifluoromethyl)-1H-indazol-4-yl)-2-(((2R,7aS)-2-fluorotetrahydro-1H-pyrrolizin-7a(5H)-yl)methoxy)pyrido[4′,3′:4,5]thi-eno[2,3-d]pyrimidin-4-yl)-6-methyl-1,4-oxazepan-6-ol] | 8.26 | 7.69 | 8.07 | 7.25 | 7.62 | 7.55 | 8.14 | 7.73 |
